Entries after “also recorded” stand apart in the source; their conditions may differ. Read-outs that look alike come from different tables or passages of the source. *1 amine or outer side, *2 acyl side, *3 side chain or, on linkers, in order; H or OH if unused. Where a SMILES comes first, the peptide text is derived from it. Where no end group is shown, it is not given here. [ ]: non-standard residue; d: D form. The star is where a group is joined. Phe(4-NO2) = N[C@@H](Cc1ccc([N+](=O)[O-])cc1)C(=O)O; Phe(4-Cl) = N[C@@H](Cc1ccc(Cl)cc1)C(=O)O; 2Thi = N[C@@H](Cc1cccs1)C(=O)O; AMC = Cc1cc(=O)oc2cc(N*)ccc12; Suc = O=C(CCC(=O)[*:2])[*:1]; Nva = CCC[C@H](N)C(=O)O; Cbz = O=C(OCc1ccccc1)*
Tests used:
[1] = Human serum stability of library peptides by LC/MS; type: in vitro ADME; conditions: 20S CP one hour vs 10% human serum 10 min
Text: This is supported by when we first optimized conditions for treating the peptides with human serum using Tyr-containing peptide.
Specifically, these were the four Phe derivatives tested. […] Because we were interested in the effects of unnatural amino acids in increasing the specificity of our 20S CP recognition sequence, we moved forward with Phe(4-Cl) and Phe(4-NO2) as Tyr substitutes in our probe structure to create TAS2 and TAS3, respectively (FIG. 1B).

20S CP [2] = biological target: T1, 20S CP (Homo sapiens, UniProt P20618+P28074); test: LC/MS assay of peptide library as 20S CP substrates; type: biochemical; conditions: 12 μM peptide, 9 nM 20S CP, 37° C., one hour
Description: To evaluate this set of peptides as potential 20S CP substrates, we applied a similar LC/MS-based assay to that used to discover the immunoproteasome probe. Briefly, the peptides were dissolved in DMSO at a stock concentration of 600 μM. The peptides were then diluted in 50 mM tris buffer, pH 7.4, in a 96-well plate for a final assay concentration of 12 μM in two sets of triplicates. One set of triplicates served as a negative control, incubated in tris buffer alone. For analysis, this would correspond to the ionization intensity of completely intact samples, which can then be compared to the amount of intact peptide remaining in 20S CP-treated samples. To the other triplicate was added 20S CP to a final concentration of 9 nM. All samples were incubated at 37° C. for one hour before an equal volume of acetonitrile was added to halt degradation by denaturing the 20S CP. Samples were dried, resuspended in 50/50 water/acetonitrile with 0.1% formic acid and analyzed by LC/MS (example spectra can be found in Supporting Information Appendix B).
For each peptide, the mass of the full (uncleaved) structure was extracted (extracted ion chromatogram, EIC) from each sample and this peak was integrated to obtain the peak area. The peak areas for the negative control samples of individual structures were averaged and set to 1. Peak areas for 20S CP-treated samples were then scaled to the average for the untreated sample and the triplicates averaged to obtain a value for the fraction of full peptide remaining (FIG. 4). To confirm that the peptide was being cleaved at the desired position, the mass of the corresponding 4mer-peptide cleavage product was found in each 20S CP-treated sample with significant decrease in full peptide observed.

MM.1R = test: Cell viability by Cell-Titer Glo; type: cell-based; conditions: 48 hours
Description: (§1) We also sought to correlate this proteasome activity trend with susceptibility to a proteasome inhibitor by determining the IC50 values of MG-132 with these six cells. Cells were dosed for 48 hours with increase concentrations of MG-132 then analyzed using Cell-Titer Glo to determine cell viability. […] Considering this, we still believe comparing cell lines for proteasome activity based on fluorescence with TAS2 would still provide insight to the relative dependency of various cancer cell lines on proteasome activity.

[3] = system: A498, SK-MEL-2, MEL-92.1, SH-SY5Y and HEK293T cell lines; test: Cell viability by Cell-Titer Glo; type: cell-based; conditions: remaining cell lines, 48 hours
Description: as §1

A549 cells = test: Probe cleavage in live A549 cells with or without MG-132 pretreatment; type: cell-based; conditions: MG-132 10 μM pre-incubated one hour, each TAS probe at 10 μM
Description: We next sought to determine if the TAS probes would be suitable for cell-based assays. To accomplish this, A549 cells were plated at a density of 5,000 cells/well in a black 96 well plate with a black bottom. After allowing the cells to adhere to the plate, the samples were washed with PBS three times then dosed with 10 μM of each probe in modified KRBH buffer. The change in fluorescence was recorded on a microplate reader for 90 min. After allowing the signal to equilibrate for […], each sample was set to zero and the future time points were scaled accordingly. As was done with the biochemical data, a linear regression was fit to each set of data. From the slope, it is observed that the rate for TAS2 was the highest. To determine the in-cell selectivity, a set of samples pretreated with MG-132 (10 μM), a proteasome inhibitor, was included for each probe. These samples were pre-incubated with MG-132 in cell culture media for one hour before washing with PBS and dosing with each probe in modified KRBH buffer. […] To ensure this decrease was not a consequence of cell death, cells were treated in the same way and analyzed using Cell-Titer Glo.

20S CP [4] = biological target: T1, 20S CP; test: Fluorescence hydrolysis of probes by purified 20S CP (plate reader); type: biochemical
Description: The peptide recognition sequence used was based on the commercially available 4-mer AMC probe (FIG. 1A), specifically Leu-Leu-Val-Tyr (SEQ ID NO: 1), to generate TAS1 (FIG. 1B). To determine if TAS1 had any enhanced sensitivity, the two probes were compared under the same conditions with purified 20S CP. Briefly, the probes were incubated in triplicate at 10 and 30 μM with 9 nM […] at 37° C. The change in fluorescence was monitored for two hours and the endpoint values were averaged and graphed for comparison (FIG. 1C). Because the two fluorophores have different excitation and emission wavelengths, the two experiments were performed separately but using the same conditions for the plate reader (i.e. gain, number of flashes, settling time, etc.). […] Since, unlike Suc-LLVY-AMC (SEQ ID NO: 1), TAS1 has the potential to have more than one cleavage site which could result in an increase in fluorescence (on either side of Rh110), we confirmed that the increase in signal is only from the recognition and cleavage of the peptide at the Tyr moiety by analyzing the 30 μM TAS1 samples by LC/MS (FIG. 2).
With these new peptide sequences in hand, we returned to incorporating the Rh110-peptoid moiety and to compare the cleavage of TAS1-3 with the 20S CP. We incubated all three probes at various concentrations with 9 nM 20S CP and monitored the change in fluorescence using a microplate reader. […] In order to compare the three probes, we fit a linear regression for the points from 10-60 min for 30 μM of each probe to obtain a rate for the change in fluorescence (Table 1). Of the three, TAS1 was hydrolyzed the quickest, although the slope for TAS2 was similar. […] To confirm that the change in fluorescence was due to amide bond cleavage at the expected site on the peptide, we analyzed the samples at a concentration of 30 μM by LC/MS (FIG. 3).

[5] = system: human purified 20S proteasome; test: Detection of small molecule stimulators with TAS probes using purified 20S proteasome (FIG. 7B-7D); type: biochemical; conditions: detected with TAS1 and TAS3
Description: FIG. 7B-7D show the analysis of TAS probes (TAS-1-B, TAS-2-C, TAS-3-D) for their ability to detect different small molecule stimulators using human purified 20S proteasome.
All three probes were able to detect stimulation is determined by an increase in the % activity over 60 min as compared to the DMSO control. Both TAS1 and TAS3 can differentiate between weak (TRC-1 and TCM-1) and strong proteasome stimulators (MK-886).

proteasome = system: T2, proteasome; test: Proteasome stimulation in cells monitored with TAS probes; type: cell-based
T2 construct: endogenous in cells; host or cells: A549 (inferred; the stimulator paragraph says only 'cells')
Text: In addition to determining if our probes are capable of detecting a decrease in proteasome activity, we were also interested in monitoring molecules which have shown to increase proteasome activity, also known as proteasome stimulators. […] However, this method requires transfection of the MT-fusion protein into cells and analysis by Western blot. Given the promising results with MG-132, we expected our probes to be sensitive enough to detect proteasome stimulation in a similar manner. Using three molecules reported to have various degrees of stimulation, cells were dosed for one hour before washing and adding in each probe. The samples were then monitored for changes in fluorescence and analyzed in the same way as the MG-132 experiment.
Previously proteasome stimulators had been discovered using a biochemical assay that required purified proteasome. As with all enzyme purifications, the batch to batch activity can vary greatly, leading to inconsistent results. […]
Using three different stimulating small molecules previously validated using other methods, we found both TAS1 and TAS3 would be suitable to use in such an assay. […] An increase in proteasome activity can be detected after as little as 15 min of incubation time, which can help to increase throughput during a screening campaign. […]

[6] = 10% v/v human serum in tris buffer; conditions: up to 60 min
20S CP [7] = test: purified 20S CP; conditions: 37° C., up to two hours
20S CP [8] = conditions: cited from earlier work

For “Phe(4-Cl): library peptide with Phe(4-Cl) in S1 position replacing Tyr, Ala-Ala dipeptide (LLV[Phe(4-Cl)]AA-NH2; N-terminus assumed; SMILES CC(C)C[C@H](NC(=O)[C@@H](N)CC(C)C)C(=O)N[C@H](C(=O)N[C@@H](Cc1ccc(Cl)cc1)C(=O)N[C@@H](C)C(=O)N[C@@H](C)C(N)=O)C(C)C)”, the “Cleavage by 20S CP compared to human serum” value [1] was “greater than three-times favored cleavage by the 20S CP”.

In the case of `CNCC(=O)O` [Sar], the “Cleavage of peptide by 20S CP (in words)” value (20S CP [2]) is reported as “significantly cleaved” and the “Cleavage by 20S CP compared to human serum” value [1] is reported as “no significant difference in cleavage; also recorded: near equal cleavage by both”.

With `N[C@@H](CCO)C(=O)O` [Hse] the “Peptide cleaved by 20S CP” value (20S CP [2]) was ~50%.

For `CC(C)C[C@@H](C=O)NC(=O)[C@H](CC(C)C)NC(=O)[C@H](CC(C)C)NC(=O)OCc1ccccc1` [MG-132] (Cbz-Leu-Leu-Leu-aldehyde), the IC50 (MM.1R) was 264 nM, the “IC50 (cell viability)” value [3] was “higher than that of MM.1R” and the “Decrease of slope of probe cleavage” value (A549 cells) was ≥ 50%.

For “Nva: library peptide with norvaline in S1 position replacing Tyr, Ala-Ala dipeptide (LLV[Nva]AA-NH2; N-terminus assumed; SMILES CCC[C@H](NC(=O)[C@@H](NC(=O)[C@H](CC(C)C)NC(=O)[C@@H](N)CC(C)C)C(C)C)C(=O)N[C@@H](C)C(=O)N[C@@H](C)C(N)=O)”, the “Peptide cleaved by 20S CP” value (20S CP [2]) was ~50%.

For `CCCC[C@H](N)C(=O)O` [norleucine], the “Peptide cleaved by 20S CP” value (20S CP [2]) was ~50%.

For “Thi: library peptide with thienylalanine in S1 position replacing Tyr, Ala-Ala dipeptide (LLV[2Thi]AA-NH2; N-terminus assumed; SMILES CC(C)C[C@H](NC(=O)[C@@H](N)CC(C)C)C(=O)N[C@H](C(=O)N[C@@H](Cc1cccs1)C(=O)N[C@@H](C)C(=O)N[C@@H](C)C(N)=O)C(C)C)”, the “Cleavage of peptide by 20S CP (in words)” value (20S CP [2]) was “highest amount of cleavage” and the “Cleavage by 20S CP compared to human serum” value [1] was “near equal cleavage by both”.

For “TAS3: Rh110-based peptide/peptoid hybrid probe with Phe(4-NO2) as Tyr substitute (LLV[Phe(4-NO2)]; also: Rh110-based probe, place not given here, peptide/peptoid hybrid)”, the “Rate of Hydrolysis” value (20S CP [4]; 30 μM probe, 9 nM purified 20S CP, linear regression 10-60 min) was 28.1 ΔRFU/min, the “Cleavage products after incubation with 20S CP (LC/MS)” value (20S CP [4]; 30 μM probe, LC/MS) was “only produced the expected cleavage products” and the Background fluorescence level (20S CP [4]; purified 20S CP assay) was “considerably higher level of background”.

With `CC(C)c1ccc2c(c1)c(SC(C)(C)C)c(CC(C)(C)C(=O)O)n2Cc1ccc(Cl)cc1` [MK-886] the “Proteasome stimulator strength (% activity over 60 min vs DMSO)” value [5] was “strong”, the “Increase in proteasome activity vs DMSO” value (proteasome; probe TAS1, cells dosed one hour) was “greater than 3 fold” and the “Increase in proteasome activity vs DMSO” value (proteasome; probe TAS3, cells dosed one hour) was “greater than 3 fold”.

In the case of “Phe: library peptide with Phe in S1 position replacing Tyr, Ala-Ala dipeptide (LLVFAA)”, the “Cleavage by 20S CP compared to human serum” value [1] is reported as “greater than three-times favored cleavage by the 20S CP”.

With “Phe(4-NO2): library peptide with Phe(4-NO2) in S1 position replacing Tyr, Ala-Ala dipeptide (LLV[Phe(4-NO2)]AA-NH2; N-terminus assumed; SMILES CC(C)C[C@H](NC(=O)[C@@H](N)CC(C)C)C(=O)N[C@H](C(=O)N[C@@H](Cc1ccc([N+](=O)[O-])cc1)C(=O)N[C@@H](C)C(=O)N[C@@H](C)C(N)=O)C(C)C)” the “Cleavage by 20S CP compared to human serum” value [1] was “greater than three-times favored cleavage by the 20S CP”.

In the case of “D-Phe: library peptide with D-Phe moiety in S1 position replacing Tyr, Ala-Ala dipeptide (LLV[dF]AA-NH2; N-terminus assumed; SMILES CC(C)C[C@H](NC(=O)[C@@H](N)CC(C)C)C(=O)N[C@H](C(=O)N[C@H](Cc1ccccc1)C(=O)N[C@@H](C)C(=O)N[C@@H](C)C(N)=O)C(C)C)”, the “Cleavage of peptide by 20S CP (in words)” value (20S CP [2]) is reported as “did not accept”.

With Leu-Leu-Val-Tyr the cleaved bond [6] was “Leu-Leu, first_seen, 30 min; also recorded: Leu-Val, 60 min”, the not cleaved [6] was “no productive cleavage for either 30 or 60 min” and the cleaved bond (20S CP [7]) was “Tyr-Rh110”. The not cleaved (20S CP [7]) was “only new peaks formed were the expected cleavage products”.

In the case of Suc-LLVY-{AMC}, the cleaved bond (20S CP [8]) is given as “Tyr-AMC”.
